Laboratory results published in patent publication US20230382863A1, “MEK INHIBITORS AND USES THEREOF” (Ikena Oncology, Inc., priority 2022, published 2023).

Tests used:
[1] = test system: Phosphorylation of ERK1/2 in AsPC1 cells; assay: 4 hour pERK1/2 HTRF Assay; format: cell-based; conditions: Homo sapiens, ASPC1, read-out: pERK AsPC-1 HTRF (4 hour): Average IC50 (nM); AsPC-1, 4 hour
Method: AsPC1 cells were seeded at 20,000 cells/well overnight in 96-well plates, then treated with a 12-point dose response of compounds (Starting dose of 3000 nM and 3-fold dilution) for 4 hours. AsPC1 cells are a K-Ras mutant cell line. Phosphorylation of ERK1/2 on residues Thr202 and Tyr204 were detected using a Homogenous Time-Resolved Fluorescence (HTRF) assay (Cisbio Cat #64ERKPEG). Briefly, ERK phosphorylation was detected using a sandwich assay format using two phospho-ERK specific antibodies, one labelled with EU^3+-Cryptate (donor) and the second with d2 (acceptor). The Fluorescence Resonance Energy Transfer (FRET) towards the d2 acceptor was detected at a wavelength of 665 nm. ERK1/2 phosphorylation levels were normalized to total ERK1/2 protein levels in each well. IC50 values were determined by fitting a variable slope, four parameters curve to the compound concentration to normalized Phospho-ERK1/2 relationship.

[2] = Cassette pharmacokinetics studies in mice; format: in vivo; conditions: male, Balb/c, plasma; Mouse, PO, 5 mg/kg
Method: Pharmacokinetics studies were conducted using cassette dosing protocols, with test compounds administered per mouse. Treatment groups were 3 mice (˜6-8 weeks old, ˜20-30 g Balb/c male mice) per route of administration. Compounds were formulated in 5% DMSO and 95% PEG400 with final concentrations of 0.5 mg/mL for IV and PO dosing. Compounds were dosed at 2 mg/kg for IV dosing and 5 mg/kg for PO dosing. Blood samples were withdrawn at 0.083, 0.25, 0.5, 1.0, 2.0, 4.0, 6.0, 8.0, and 24 hours following IV dosing, and 0.25, 0.5, 1.0, 2.0, 4.0, 6.0, 8.0, and 24 hours following PO dosing. Blood samples were centrifuged at 4,000 g for 5 minutes at 4° C. to obtain plasma samples. Plasma samples were diluted with acetonitrile containing internal standard, vortexed for 30 seconds, then centrifuged at 4,000 rpm for 15 minutes at 4° C. The supernatant was diluted with water, and compound concentration was determined by HPLC/MS/MS compared to calibration standards of 0.5-1,000 ng/mL.
Where route is listed as “IV*”, the compound was dosed IV at 1 mg/kg.

Row | Compound | IC50 [1] | also measured
1 | Cc1c(Oc2cccc(NS(=O)(=O)N3CCC3)c2C(F)(F)F)c(C(=O)NC2CC2)c(Nc2ccc(I)cc2F)n(C)c1=O [Compound I-103] | < 100 nM | 
2 | CCc1c(Oc2cccc(NS(=O)(=O)NC)c2Cl)c(C(=O)NC2CC2)c(Nc2ccc(I)cc2F)n(C)c1=O [Compound I-92] | 100 to 1000 nM | 
3 | Cc1c(Oc2cccc(NS(=O)(=O)N3CCC3)c2Cl)c(C(=O)NCC(F)(F)F)c(Nc2ccc(I)cc2F)n(C)c1=O [Compound I-106] | < 100 nM | 
4 | CNS(=O)(=O)Nc1cccc(Oc2c(C(=O)NCC[C@@H](O)CO)c(Nc3ccc(I)cc3F)n(C)c(=O)c2C)c1Cl [Compound I-119] | < 100 nM | 
5 | CNS(=O)(=O)Nc1nccc(Oc2c(C(=O)NC3CC3)c(Nc3ccc(I)cc3F)n(C)c(=O)c2C)c1Cl [Compound I-121] | < 100 nM | 
6 | CNS(=O)(=O)Nc1cccc(Oc2c(C(=O)NC3CC3)c(Nc3ccc(I)cc3F)n(C)c(=O)c2C)n1 [Compound I-96] | 100 to 1000 nM | 
7 | CNS(=O)(=O)Nc1cccc(Oc2c(C(=O)N(C)C3CCC3)c(Nc3ccc(I)cc3F)n(C)c(=O)c2C)c1 [Compound I-133] |  | AUC(0-inf) [2]: 28 ng·h/mL; AUC(0-t) [2]: 27 ng·h/mL; Cmax [2]: 41.2 ng/mL; Tmax [2]: 0.2 h; half-life [2]: 0.4 h
8 | CCc1c(Oc2cccc(NS(=O)(=O)NC)c2Cl)c(C(=O)NC2CC2)c(Nc2ccc(I)cc2F)n(C2CC2)c1=O [Compound I-120] | 1000 to 10000 nM | 
9 | CNS(=O)(=O)Nc1cccc(Oc2c(C(=O)NCC[C@H](O)CO)c(Nc3ccc(I)cc3F)n(C)c(=O)c2C)c1Cl [Compound I-118] | < 100 nM | 
10 | CNS(=O)(=O)Nc1cncc(Oc2c(C(=O)NC3CC3)c(Nc3ccc(I)cc3F)n(C)c(=O)c2C)c1Cl [Compound I-122] | 100 to 1000 nM | 
11 | Cc1c(Oc2cccc(NS(=O)(=O)N(C)C)c2Cl)c(C(=O)NCC(F)(F)F)c(Nc2ccc(I)cc2F)n(C)c1=O [Compound I-105] | < 100 nM | 
12 | CNS(=O)(=O)Nc1cccc(Nc2c(C(=O)OC3CC3)c(Nc3ccc(I)cc3F)n(C)c(=O)c2C)c1Cl [Compound I-47] | < 100 nM | 
13 | CNS(=O)(=O)Nc1cccc(Oc2c(C(=O)NC3CC3)c(Nc3ccc(I)cc3F)n(C)c(=O)c2C)c1C(F)(F)F [Compound I-37] |  | AUC(0-inf) [2]: 12900 ng·h/mL; AUC(0-t) [2]: 12900 ng·h/mL; Cmax [2]: 1730 ng/mL; Tmax [2]: 1.7 h; half-life [2]: 1.99 h

The next lines start with results.

Row | IC50 [1] | Compound | also measured
14 | < 100 nM | Cc1c(Oc2cccc(NS(=O)(=O)N3CC(F)C3)c2Cl)c(C(=O)NC2CC2)c(Nc2ccc(I)cc2F)n(C)c1=O [Compound I-107] | 
15 | < 100 nM | Cc1c(Oc2cccc(N(CC(F)(F)F)S(=O)(=O)NC3CC3)c2Cl)c(C(=O)NC2CC2)c(Nc2ccc(I)cc2F)n(C)c1=O [Compound I-95] | 
16 | < 100 nM | Cc1c(Oc2cccc(NS(=O)(=O)N3CCC3)c2Cl)c(C(=O)NC2CC2)c(Nc2ccc(I)cc2F)n(C)c1=O [Compound I-108] | 
17 | 100 to 1000 nM | CNS(=O)(=O)N(CC(F)(F)F)c1cccc(Oc2c(C(=O)NC3CC3)c(Nc3ccc(I)cc3F)n(C)c(=O)c2C)c1Cl [Compound I-97] | 
18 | < 100 nM | CCN(CC)S(=O)(=O)Nc1cccc(Oc2c(C(=O)NC3CC3)c(Nc3ccc(I)cc3F)n(C)c(=O)c2C)c1Cl [Compound I-110] | 
19 | < 100 nM | Cc1c(Oc2cccc(N(C)S(=O)(=O)NC3CC3)c2Cl)c(C(=O)NC2CC2)c(Nc2ccc(I)cc2F)n(C)c1=O [Compound I-99] | 
20 | 100 to 1000 nM | Cc1c(Oc2cccc(N(C3CC3)S(=O)(=O)NC3CC3)c2Cl)c(C(=O)NC2CC2)c(Nc2ccc(I)cc2F)n(C)c1=O [Compound I-94] | 
21 | < 100 nM | CCN(C1CC1)S(=O)(=O)Nc1cccc(Oc2c(C(=O)NC3CC3)c(Nc3ccc(I)cc3F)n(C)c(=O)c2C)c1Cl [Compound I-101] | 
22 | < 100 nM | CNS(=O)(=O)Nc1cccc(Oc2c(C(=O)NC3CC3)c(Nc3ccc(I)cc3F)n(C)c(=O)c2C)c1Cl [Compound I-109] | 
23 | < 100 nM | CNS(=O)(=O)N(C)c1cccc(Oc2c(C(=O)NC3CC3)c(Nc3ccc(I)cc3F)n(C)c(=O)c2C)c1Cl [Compound I-100] | 
24 | < 100 nM | Cc1c(Oc2cccc(NS(=O)(=O)N(C)C3CC3)c2Cl)c(C(=O)NC2CC2)c(Nc2ccc(I)cc2F)n(C)c1=O [Compound I-102] | 
